The text below walks through data of patent US8598127B2, “Peptides for inhibiting MDM2 function” (Korea Research Institute of Bioscience & Biotechnology, priority 2004, dated 2013).

Test [1] concerns Carcinoma cell lines, MCF-7, HCT 11 6, A549 and SNU-71. Put plainly: MTT assay, induction of apoptosis of cancer cells. It counts as cell-based. Conditions: cancer cells treated for 18 hrs. As to the method: Carcinoma cell lines, MCF-7, HCT 11 6, A549 and SNU-71, were cultured in RPMI 1640 medium supplemented with 10% FBS and 100 U/ml penicillin/streptomycin in a humidified 5% CO2 incubator (Gibco-BRL, UK) at 37° C. The cultured cancer cells were treated for 18 hrs with HIV-1 Tat(48-60)-p53 TAD(50-54), an alanine-substituted peptide of SEQ ID NO. 7 and a trytophane-substituted peptide of SEQ ID NO. 11. Then, induction of apoptosis of cancer cells was determined by an MTT assay using the tetrazolium salt, 3-(4,5-dimethylthiazol-2-yl)-2,5-diphenyltetrazolium bromide (MTT). In the MTT assay, after the cancer cells were incubated for 2 hrs in RPMI 1640 medium supplemented with 10% FBS and 0.5 mg/ml MTT, the medium was removed, and 100 μl of DMSO was added.
Four carcinoma cell lines were treated for 18 hrs with HIV-1 Tat(48-60)-p53 TAD(50-54), which was prepared by linking a cell permeable peptide HIV-1 Tat(48-60) consisting of amino acid residues 48-60 of the HIV-1 Tat protein of SEQ ID NO. 22 to the N-terminal end of p53 TAD(50-54), and alanine-substituted and trytophane-substituted peptides thereof. Then, the induction of apoptosis of cancer cells was determined by an MTT assay, and the cancer cells were microscopically observed.

In a further test the target is T1, mdm2(3-109) (Homo sapiens, UniProt Q00987).
T1 construct: made in house; host or cells: E. coli BL21(DE3), pLM1 vector
The test is described as follows: Chemical shift perturbation experiment (15N-1H HSQC NMR titration of 15N-mdm2(3-109) with p53 TAD or fragment peptides). It counts as binding. The settings on record: 0.2 mM 15N-mdm2(3-109), 25° C.; for binding affinity to mdm2 as indicated by chemical shift perturbation: 15N-1H HSQC titration. The protocol: All NMR data were measured using a Varian Unity INOVA 600 MHz NMR spectrometer at 5° C. and 25° C. ^15N—^1H HSQC (heteronuclear single quantum coherence spectroscopy) spectra were collected with spectral widths of 8000 Hz in the ^1H dimension and 1800 Hz in the ^15N dimension, and with 1024 data points in the t2 domain and 256 data points in the t1 domain.
Also, ^15N—^1H HSQC spectra were collected for the ^15N-labeled mdm2(3-109) protein, dissolved in a buffer solution of 25 mM Tris HCl (pH 7.5), 150 mM NaCl, 2 mM DTT, 0.1 mM PMSF, 0.1 mM EDTA, 0.1 mM benzamidine and 0.02% NaN3, at 0.2 mM of ^15N-mdm2(3-109) and 25° C.
First, HSQC spectra of ^15N-mdm2(3-109) in a free state were collected (FIG. 4). […] Chemical shift assignments of mdm2(3-109) in a free and bound states were performed using 3D NMR experiments, HNCA, HNCOCA, ^15N-edited TOCSY and ^15N-edited NOESY spectrum analysis.
2D ^15N—^1H HSQC spectra were collected for the free (unbound) form of purified ^15N-labeled mdm2(3-109).

Where no end group is shown, it is not given here.

For the substance DAEQAA, the “effect on apoptosis induction in cancer cells” value (shortened to “effect on apoptosis induction”) in test [1] is “unable to induce apoptosis in cancer cells”.

For the substance DIEQWF-NH2 [p53 TAD(49-54), DIEQWF], the “effect on apoptosis induction” value in test [1] is on record as “effectively induces apoptosis”.

As for DWEQWW, the “effect on apoptosis induction” value in test [1] was “greatly higher activity in inducing apoptosis than the native DIEQWF”.

For the substance “p53 TAD(1-73): recombinant p53 TAD domain corresponding to residues 1-73 of the TAD of human p53”, in the test with mdm2(3-109), the “binding affinity to mdm2 as indicated by chemical shift perturbation” value is “high affinity”.

With “DVEQVV (DVEQVV-NH2) [Val-substituted peptide having I50V/W53V/F54V substitutions relative to the native p53(49-54) peptide]”, the “binding affinity to mdm2 as indicated by chemical shift perturbation” value with mdm2(3-109) is “low binding affinity to mdm2”. Also, the “changes in chemical shift of 15N-mdm2(3-109) after addition of the peptide” value in the test with mdm2(3-109) (15N-1H HSQC) is “small change in chemical shift”.
